These results are taken from US20080286815A1, “SPECTROPHOTOMETRIC ASSAY FOR HUMAN HISTONE DEACETYLASE 8” (THE UNIVERSITY OF AKRON, priority 2007, published 2008).

Test [1] concerns HeLa nuclear extracts enriched in HDAC1 and 2. In words: HPLC-based and DTNB-based assays with HeLa nuclear extracts. The format is biochemical, human. The following applies: for dethioacetylation by HeLa nuclear extracts: HDAC8 replaced with HeLa nuclear extracts, HPLC-based and DTNB-based assay formats; for kobs (deacetylation by HeLa nuclear extracts): 30 min; for kobs (deacetylation by HeLa nuclear extracts) / substrate turnover: HPLC analysis; for substrate turnover: at 30 min. The procedure: (§1) HPLC-based enzymatic assay. The HPLC data shown in FIG. 4 was generated using the following procedure. The HDAC8-catalyzed dethioacetylation reaction was performed in the same HDAC8 assay solution as above-described, except that no thioacetic acid was added but purified HDAC8 and its substrate (i.e. the above-described peptide ii) were added to final concentrations of 375 nM and 0.3 mM, respectively. An enzymatic reaction was initiated by the addition of HDAC8 at room temperature and was allowed to be incubated at room temperature until quenched at different time points with the following stop solution: 3.2 M guanidinium chloride in 100 mM of sodium phosphate (pH 6.8). One portion (40 uL) of the HDAC8 assay mixture was quenched with 80 uL of the above stop solution, and was analyzed as set forth above by RP-HPLC with a C18 analytical column (100 Å, 0.46×25 cm), eluting with the following gradient of double deionized water containing 0.05% (v/v) trifluoroacetic acid (mobile phase A) and acetonitrile containing 0.05% (v/v) trifluoroacetic acid (mobile phase B): linear increase from 0% B to 35% B from 0-40 min (1 mL/min), and ultraviolet (UV) monitoring at 214 nm. The enzymatically formed dethioacetylated product (i.e. the above-referenced peptide i) was confirmed by its comigration with the chemically synthesized authentic sample and by mass spectrometric analysis with MALDI-TOF, and was quantified by HPLC peak integration and comparison with that of the synthetic authentic sample. The same assay protocol was used when the HeLa nuclear extracts were used instead of human HDAC8. Nearly same assay protocols were used when purified HDAC1 and HDAC2 were employed instead of HDAC8, with the following exceptions: i) For HDAC1 assays, 50 mM Tris.HCl (pH 8.0) was used instead of 25 mM Tris.HCl (pH 8.0); ii) HDAC2 assays were performed at 30° C. instead of RT; iii) HDAC1 and HDAC2 assay solutions were all quenched with the following stop solution: 1.0 M HCl and 0.16 M acetic acid. These changes were instituted to more clearly assess the selectivity.
DTNB-based enzymatic assay. The DTNB data shown in FIG. 4 was generated using the following procedure. A second portion (300 µL) of the above HDAC8 assay mixture was quenched with 600 µL of the stop solution: 3.2 M guanidinium chloride in 100 mM of sodium phosphate (pH 6.8), and was analyzed by the DTNB-based assay procedure according to the invention, i.e. 60 min after the quench and DTNB (100 µL) addition, A412 was recorded for each sample derived at different time points of the same assay reaction. Again, the same assay protocol was used when the HeLa nuclear extracts were used instead of human HDAC8. To measure the kinetic parameters for the thioacetyl-lysine p53 peptide as an in vitro HDAC8 substrate, all the assay reactions contained 375 nM of HDAC8, a range of substrate concentrations varied around the Km value, and were allowed to proceed at room temperature for 1 hour before quenching. Reaction velocities were determined under initial condition (substrate turnover <10%). This experiment was performed twice, and each duplicate measurement agreed within 20%. By using a non-linear least squares approach with the computer program Kaleidagraph (Reading, Pa., USA), kinetic parameters (kcat and Km) were derived from the Michaelis-Menten plot based on the experimental data.
Assay with HeLa nuclear extracts. In order to examine the selectivity of our newly developed DTNB-based spectrophotometric assay among different classical HDAC enzymes, we initially performed both the HPLC-based and the DTNB-based assays with the HeLa nuclear extracts enriched in HDAC1 and 2. The procedures for the HDAC8 assay were followed.

Test [2] deals with purified human HDAC1 (Homo sapiens, UniProt Q13547). In words: HPLC-based assay with purified HDAC1. The following applies: for dethioacetylation by HDAC1: purified HDAC1, HPLC-based assay format. The format is biochemical. The procedure:
as §1, with “selectivity. […]” for “selectivity.”

In test [3] the target is purified human HDAC2 (Homo sapiens, UniProt Q92769). In words: HPLC-based assay with purified HDAC2. The format is biochemical. The following applies: for dethioacetylation by HDAC2: purified HDAC2, 30° C., HPLC-based assay format. On the procedure: as §1, with “selectivity. […]” for “selectivity.”
purified human HDAC2, sequence (Q92769 whole entry): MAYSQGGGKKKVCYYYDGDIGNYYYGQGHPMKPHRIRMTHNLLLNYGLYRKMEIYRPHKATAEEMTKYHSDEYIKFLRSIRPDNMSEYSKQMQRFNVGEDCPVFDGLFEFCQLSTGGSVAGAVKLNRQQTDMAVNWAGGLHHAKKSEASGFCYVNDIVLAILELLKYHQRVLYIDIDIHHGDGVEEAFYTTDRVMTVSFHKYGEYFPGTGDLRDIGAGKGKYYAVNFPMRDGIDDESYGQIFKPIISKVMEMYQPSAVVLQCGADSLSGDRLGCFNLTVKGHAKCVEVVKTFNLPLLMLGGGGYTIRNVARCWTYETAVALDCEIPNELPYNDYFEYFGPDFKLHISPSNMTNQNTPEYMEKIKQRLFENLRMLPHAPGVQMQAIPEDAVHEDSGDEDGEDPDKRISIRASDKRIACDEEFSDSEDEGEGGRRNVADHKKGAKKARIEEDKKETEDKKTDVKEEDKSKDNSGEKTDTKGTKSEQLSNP
Where [4] appears, read: listed as thioacetyl-lysin peptide.

Ends that are not written are not given here.

purified human HDAC1, sequence (Q13547 whole entry): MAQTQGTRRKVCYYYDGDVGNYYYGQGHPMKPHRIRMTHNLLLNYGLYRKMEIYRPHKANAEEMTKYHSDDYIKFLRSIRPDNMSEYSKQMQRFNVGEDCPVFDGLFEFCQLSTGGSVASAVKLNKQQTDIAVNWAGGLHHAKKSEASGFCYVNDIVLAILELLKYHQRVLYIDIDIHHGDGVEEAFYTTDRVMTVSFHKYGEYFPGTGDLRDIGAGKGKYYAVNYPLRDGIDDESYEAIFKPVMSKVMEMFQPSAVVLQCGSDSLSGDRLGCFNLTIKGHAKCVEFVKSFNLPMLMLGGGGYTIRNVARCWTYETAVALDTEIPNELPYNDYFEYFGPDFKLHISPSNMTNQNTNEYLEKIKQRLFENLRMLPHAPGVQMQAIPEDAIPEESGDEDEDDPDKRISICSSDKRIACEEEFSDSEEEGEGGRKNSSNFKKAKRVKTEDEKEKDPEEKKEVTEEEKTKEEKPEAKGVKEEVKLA

In the case of `CSCC[C@H](NC(=O)[C@H](CC(C)C)NC(=O)[C@H](CCCCNC(C)=S)NC(=O)[C@H](CCCCN)NC(=O)[C@H](Cc1c[nH]cn1)NC(=O)[C@H](CCCNC(=N)N)NC(=O)[C@H](CO)NC(=O)[C@@H](NC(=O)[C@H](CO)NC(=O)[C@H](CCC(N)=O)NC(=O)CNC(=O)[C@H](CCCCN)NC(=O)[C@@H](N)CCCCN)[C@@H](C)O)C(=O)N[C@@H](Cc1ccccc1)C(=O)N[C@@H](CCCCN)C(=O)N[C@H](C(=O)N[C@@H](CCC(=O)O)C(=O)NCC(=O)O)[C@@H](C)O` [thioacetyl-lysine p53 peptide, H2N-KKGQSTSRHK(ThAcK)LMFKTEG-COOH], the “dethioacetylation by HeLa nuclear extracts” value in test [1] is on record as “no detectable dethioacetylation”; in test [1] (listed as thioacetyl-lysine peptide) it was “did not serve as a substrate”. The “dethioacetylation by HDAC1” value in test [2] is reported as “no detectable dethioacetylation”; in test [2] (setting [4]), “did not serve as a substrate”. Also, the figures for the “dethioacetylation by HDAC2” value in test [3] and in test [3] (setting [4]) were “no detectable dethioacetylation” and “did not serve as a substrate”, respectively.
As to AcNH—RH(AcK)—(AcK)—CONH2, the “kobs (deacetylation by HeLa nuclear extracts)” value in test [1] is given as 0.29±0.02 uM/(min·4 uL of the nuclear extracts).
AcNH—RH(ThAcK)(ThAcK)—CONH2: the “dethioacetylation by HeLa nuclear extracts” value in test [1] is “no detectable dethioacetylation”.
In the case of “acetyl-lysine p53 peptide: human p53 C-terminal peptide (amino acid residue 372-389) containing Nε-acetyl-lysine at the 382 position (KKGQSTSRHKK(Ac)LMFKTEG; UniProt P04637 372-389, looked up, fragment)”, the “kobs (deacetylation by HeLa nuclear extracts)” value in test [1] is 0.23±0.01 uM/(min·4 uL of the nuclear extracts). In addition, the substrate turnover in test [1] (4 uL of the HeLa nuclear extracts (9 mg of protein per mL)) is given as 2.3%; in test [1] (12 uL of the HeLa nuclear extracts (9 mg of protein per mL)) it was 6.5%. Besides, the “kobs (deacetylation by HDAC1)” value in test [2] (purified HDAC1, at 2 h) was 0.41 ± 0.23 min⁻¹. Besides, in test [3] (purified HDAC2, at 30 min), the “kobs (deacetylation by HDAC2)” value amounted to 6.78 ± 2.39 min⁻¹.
